Marks after values point to notes of the source that are not given here. Values belong to the compound of their own block, whether it stands above or below them.
Legend:
[1] = tested on: HUVEC; assay: Migration wound healing assay; assay type: cell-based
[2] = tested on: rat aortic rings; assay: Ex vivo rat aortic ring angiogenesis assay; assay type: cell-based
Experimental: These ex vivo organo-typic cultures were treated with single compound. […] Neovascularization was evaluated as a marker of the observed angiogenic response.
Statistical analysis—Analysis of variance was performed on the six observations per treatment for the controls and two test concentrations after normalizing to the dimethyl sulfoxide control. The probability of a type I error was set at the nominal five percent level.

[3] = tested on: endothelial cells; assay: Proliferation assay (DNA content, Hoechst 33258); assay type: cell-based
Experimental: Methodology—A day before the assay, 1×10^4 endothelial cells were plated in quadruplicate in 24-well plates ad grown in adequate complete medium over night. Cells were then treated with 10 ug/ml and 20 ug/ml of each drug. […] The dilutions and concentrations of the dyes were chosen to yield appropriate dye/base pair ratios that are crucial to obtain maximal linearity and sensitivity of the DNA quantification assays. After an incubation time of ˜10 min, fluorescence intensities were measure. All investigations were generally performed at room temperature with the solutions protected from light. Spectrofluorimetric measurements were performed with Spectramax Gemini XS. […] Florescence values were converted into DNA concentrations according to the fluorescence intensities of DNA standard calibration curves.

[4] = target: T1, Bmx(h) (Homo sapiens, UniProt P51813); assay: KinaseProfiler Assay
T1 sequence (P51813 1-675): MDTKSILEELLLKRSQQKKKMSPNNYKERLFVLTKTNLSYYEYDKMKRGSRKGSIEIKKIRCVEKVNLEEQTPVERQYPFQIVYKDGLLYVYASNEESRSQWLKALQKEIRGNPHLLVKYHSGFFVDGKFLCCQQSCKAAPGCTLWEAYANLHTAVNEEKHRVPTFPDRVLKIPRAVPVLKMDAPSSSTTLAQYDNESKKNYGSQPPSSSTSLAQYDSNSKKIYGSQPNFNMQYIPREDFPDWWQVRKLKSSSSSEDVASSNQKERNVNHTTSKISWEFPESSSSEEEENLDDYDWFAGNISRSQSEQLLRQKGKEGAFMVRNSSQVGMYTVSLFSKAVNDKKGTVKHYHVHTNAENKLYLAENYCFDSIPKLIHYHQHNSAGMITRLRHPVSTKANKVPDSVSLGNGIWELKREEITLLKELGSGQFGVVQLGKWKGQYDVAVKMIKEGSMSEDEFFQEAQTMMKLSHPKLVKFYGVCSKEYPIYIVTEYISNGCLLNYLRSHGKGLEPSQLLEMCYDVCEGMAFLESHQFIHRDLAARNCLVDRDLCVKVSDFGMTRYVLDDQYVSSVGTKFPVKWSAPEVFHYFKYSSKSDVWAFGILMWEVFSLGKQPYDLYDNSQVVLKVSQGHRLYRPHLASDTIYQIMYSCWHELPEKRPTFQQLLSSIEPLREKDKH

SMILES: COc1cc(O)c(CC=C(C)C)c(O)c1C(=O)/C=C/c1ccc(O)cc1 [Xanthohumol, xanthohumol]
Relative Percent Wound Closure at Six Hours vs Dimethyl Sulfoxide Controls ([1]; 20 μg/mL, HUVEC, six hours): 45** Percent
wound closure (in words) ([1]; 20 ug/ml, 6 hours): most active of the test materials
Summary of Effects: Migration ([1]; summary table): −60%
Relative Number of Vessels vs Dimethyl Sulfoxide Controls ([2]; 5.0 μg/mL): 95.9
Relative Number of Vessels vs Dimethyl Sulfoxide Controls ([2]; 20 μg/mL): 100
vessel growth (in words) ([2]; 20 and 5 μg/mL): not active
Summary of Effects: Aortic Angiogenesis ([2]; summary table): Not Active
Relative DNA Content vs Dimethyl Sulfoxide Controls ([3]; 24 Hours, 10 μg/mL): 95
Relative DNA Content vs Dimethyl Sulfoxide Controls ([3]; 24 Hours, 20 μg/mL): 66**
Relative DNA Content vs Dimethyl Sulfoxide Controls ([3]; 48 Hours, 10 μg/mL): 82**
Relative DNA Content vs Dimethyl Sulfoxide Controls ([3]; 48 Hours, 20 μg/mL): 57**
Relative DNA Content vs Dimethyl Sulfoxide Controls ([3]; 72 Hours, 10 μg/mL): 71**
Relative DNA Content vs Dimethyl Sulfoxide Controls ([3]; 72 Hours, 20 μg/mL): 42**
Summary of Effects: Proliferation ([3]; summary table): −60%

SMILES: CC(C)CCC(=O)[C@]1(O)C(O)=C(C(=O)C(C)C)C(=O)[C@H]1CCC(C)C [TH1, tetrahydro-isocohumulone]
activity in inhibiting BMX in comparison with TH4 and TH5 ([4]; 100 μg/ml): about 50%

inhibition of BMX kinase ([4]; 100 μg/mL): inhibit it almost completely
SMILES: CCC(C)C(=O)C1=C(O)[C@@](O)(C(=O)CCC(C)C)[C@H](CCC(C)C)C1=O (stereo partly shown) [TH4, tetrahydro-isoadhumulone]
